Laboratory results reported in patent US20220079931A1, “ESTROGEN RECEPTOR PROTEIN DEGRADERS” (THE REGENTS OF THE UNIVERSITY OF MICHIGAN, priority 2019, published 2022).

Tests used:
[1] = molecular target: T1, VHL-ElonginBC complex (Homo sapiens, UniProt P40337); assay: Fluorescence-polarization (FP) competitive binding assay for VHL; details: VHL ligands; VHL-ElonginBC complex and fluorescent probe both 5 nM; read-out: FP Binding affinity IC50
T1 construct: His-TEV (His-tag with TEV protease site) (cleaved yes); made in house; host or cells: E. coli BL21(DE3)
Method: Cloning and Purification of VHL-ElonginBC complex. The DNA sequence of VHL (coding for residues 54-213) was constructed by PCR and inserted into a His-TEV expression vector^58 using ligation-independent cloning. The DNA sequences of Elongin B (encoding residues 1-118) and Elongin C (encoding residues 1-96) were constmcted by PCR and inserted into pCDFDuet 1 using Gibson assembly.^59 BL21(DE3) cells were transformed simultaneously with both plasmids and grown in Terrific Broth at 37° C. until an OD600 of 1.2. The cells were induced overnight with 0.4 mM IPTG at 24° C. Pelleted cells were freeze-thawed then resuspended in 20 mM Tris HCl pH7.0, 200 mM NaCl and 0.1% β-mercaptoethanol (bME) containing protease inhibitors. The cell suspension was lysed by sonication and debris removed via centrifugation. The supernatant was incubated at 4° C. for 1 hr with Ni-NTA (Qiagen) pre-washed in 20 mM Tris-HCl pH 7.0, 200 mM NaCl and 10 mM Imidazole. The protein complex was eluted in 20 mM Tris-HCl pH 7.0, 200 mM NaCl and 300 mM Imidazole, dialyzed into 20 mM Tris-HCl pH 7.0, 150 mM NaCl, and 0.01% bME and incubated with TEV protease overnight at 4° C. The protein sample was reapplied to the Ni-NTA column to remove the His-tag. The flow through containing the VHL complex was diluted to 75 mM NaCl and applied to a HiTrap Q column (GE Healthcare). The sample was eluted with a salt gradient (0.075-1 M NaCl), concentrated and further purified on a Superdex S75 column (GE Healthcare) pre-equilibrated with 20 mM Bis-Tris 7.0, 150 mM NaCl and 1 mM DTT. Samples were aliquoted and stored at −80° C.
Binding Affinities of VHL ligands to VHL. A fluorescence-polarization (FP) competitive assay was established using VHL-ElonginBC complex and a fluorescently tagged probe (SI). The IC50 and Ki values of VHL ligands were determined in competitive binding experiments. Mixtures of 5 μL of compounds in DMSO and 95 μL of preincubated protein/tracer complex solution were added into assay plates which were incubated at rt for 60 min with gentle shaking. Final concentrations of VHL-ElonginBC complex and fluorescent probe were both 5 nM. Negative controls containing protein/probe complex only (equivalent to 0% inhibition) and positive controls containing only free probes (equivalent to 100% inhibition) were included in each assay plate. FP values in millipolarization units (mP) were measured using the Infinite M-1000 plate reader (Tecan U.S., Research Triangle Park, N.C.) in Microfluor 1 96-well, black, round-bottom plates (Thermo Scientific, Waltham, Mass.) at an excitation wavelength of 485 nm and an emission wavelength of 530 nm. IC50 values were determined by nonlinear regression fitting of the competition curves. Ki values of competitive inhibitors were obtained directly by nonlinear regression fitting, based upon the KD values of the probe and concentrations of the protein and probe in the competitive assays. All the FP competitive experiments were performed in duplicate in three independent experiments.

[2] = molecular target: T2, ERα (Homo sapiens, UniProt P03372); assay: ER degradation by Western blotting in MCF-7 cells; format: cell-based; parameters: host or cells: MCF-7; details: 1 nM, 10 nM and 100 nM, 4 h, linkers containing 6-9 carbon atoms
T2 sequence (P03372 1-595): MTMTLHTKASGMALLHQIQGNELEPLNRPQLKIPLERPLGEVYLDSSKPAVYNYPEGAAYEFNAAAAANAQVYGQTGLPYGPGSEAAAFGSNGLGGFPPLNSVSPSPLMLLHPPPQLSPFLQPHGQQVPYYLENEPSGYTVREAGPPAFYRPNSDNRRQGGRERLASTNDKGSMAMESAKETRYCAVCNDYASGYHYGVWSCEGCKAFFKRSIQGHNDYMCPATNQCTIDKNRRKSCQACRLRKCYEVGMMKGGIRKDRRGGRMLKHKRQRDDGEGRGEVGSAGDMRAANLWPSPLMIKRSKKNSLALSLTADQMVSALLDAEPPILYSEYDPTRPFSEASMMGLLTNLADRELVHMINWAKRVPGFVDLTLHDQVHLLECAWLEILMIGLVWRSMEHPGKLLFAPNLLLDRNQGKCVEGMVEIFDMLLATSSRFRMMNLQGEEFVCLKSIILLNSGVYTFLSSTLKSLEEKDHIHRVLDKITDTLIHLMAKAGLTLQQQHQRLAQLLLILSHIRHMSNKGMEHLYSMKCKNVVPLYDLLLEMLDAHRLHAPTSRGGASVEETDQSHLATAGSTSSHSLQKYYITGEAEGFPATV
Method: FIG. 1 is an image showing the Western blotting analysis of ER protein in MCF-7 cells treated with Compounds of the Disclosure and control compounds. Cells were treated with different compounds for 4 h and whole cell lysates were then analyzed by Western blotting to examine the level of ER protein. GADPH protein was used for the loading control. The numbers below the panel represent the ERα/GADPH ratio normalized with the DMSO control at 100.
FIG. 2 is an image showing the Western blotting analysis of ER protein in the MCF-7 cells treated with indicated compounds at 1 nM, 10 nM and 100 nM. MCF-7 cells were treated with different compounds for 4 h and whole cell lysates were analyzed by Western blotting to examine the level of ER protein. GADPH protein was used for the loading control. The numbers below the panel represent the ERα/GADPH ratio normalized with the DMSO control at 100.
FIG. 7 is an image showing the ERα degradation dose-response Western blotting for compound 32 at 4 h in MCF-7 cells.
FIG. 9 is an image showing the time course of ERα degradation by Western blotting by compound 32 (30 nM) and fulvestrant (30 nM) in the MCF-7 cells.
Cell Culture. Human breast cancer cell lines MCF-7 (ATCC® HTB-22™) and T47D (ATCC® HTB-133™) were purchased from the American Type Culture Collection (ATCC), Manassas, Va., and maintained and cultured in Dulbecco's Modified Eagle's medium (DMEM) containing 10% fetal bovine serum, 1 unit/ml of penicillin and 1 μg/ml of streptomycin. Cells with 3-8 passages after purchase were used in experiments as indicated.
Western Blot Analysis. Western blot analysis was performed essentially as described previously (Hu et al, 2015, PMID: 26358219). Cells treated with indicated compounds were lysed in Radioimmunoprecipitation Assay Protein Lysis and Extraction Buffer (25 mmol/L Tris.HCl, pH 7.6, 150 mmol/L NaCl, 1% Nonidet P-40, 1% sodium deoxycholate, and 0.1% sodium dodecyl sulfate) containing proteinase inhibitor cocktail (Roche Diagnostics, Mannheim, Germany). After determination of protein concentration by BCA assay (Fisher Scientific, Pittsburgh, Pa.), equal amounts of total protein were electrophoresed through 10% SDS-polyacrylamide gels. The separated protein bands were transferred onto PVDF membranes (GE Healthcare Life Sciences, Marlborough, Mass.) and blotted against different antibodies, as indicated. The human estrogen receptor a antibodies (AB16460) were purchased from Abeam, Inc., Cambridge, Mass. The membranes were reblotted with horseradish peroxidase-conjugated anti-glyceraldehyde-3-phosphate dehydrogenase antibody (G9295) from Sigma-Aldrich Corporation, St. Louis, Mo. The blots were scanned and the band intensities were quantified using GelQuant.NET software as described in biochemlabsolutions.com. The relative mean intensity of target proteins was expressed after normalization to the intensity of glyceraldehyde-3-phosphate dehydrogenase bands from individual repeats.

Row | IC50 [1] [µM] | Structure (SMILES) | ER degradation (Western blotting) [2]
1 | 7.87 ± 0.642 | CC(=O)N[C@H](C(=O)N1C[C@H](O)C[C@H]1C(=O)N[C@@H](C)c1ccc(Cl)cc1)C(C)(C)C [43a, (2S,4R)-1-((S)-2-acetamido-3,3-dimethylbutanoyl)-N—((S)-1-(4-chlorophenyl)ethyl)-4-hydroxypyrrolidine-2-carboxamide] | 
2 | 0.879 ± 0.097 | C#Cc1ccc([C@H](C)NC(=O)[C@@H]2C[C@@H](O)CN2C(=O)[C@@H](NC(C)=O)C(C)(C)C)cc1 [44a, (2S,4R)-1-((S)-2-acetamido-3,3-dimethylbutanoyl)-N—((S)-1-(4-ethynylphenyl)ethyl)-4-hydroxypyrrolidine-2-carboxamide] | 
3 | 4.83 ± 0.418 | CC(=O)N[C@H](C(=O)N1C[C@H](O)C[C@H]1C(=O)N[C@@H](C)c1ccc(C#N)cc1)C(C)(C)C [45a, (2S,4R)-1-((S)-2-acetamido-3,3-dimethylbutanoyl)-N—((S)-1-(4-cyanophenyl)ethyl)-4-hydroxypyrrolidine-2-carboxamide] | 
4 | 6.11 ± 0.82 | CC(=O)N[C@H](C(=O)N1C[C@H](O)C[C@H]1C(=O)N[C@@H](C)c1ccc(C2CC2)cc1)C(C)(C)C [46a, (2S,4R)-1-((S)-2-acetamido-3,3-dimethylbutanoyl)-N—((S)-1-(4-cyclopropylphenyl)ethyl)-4-hydroxypyrrolidine-2-carboxamide] | 
5 | 41 ± 6.67 | CC(=O)N[C@H](C(=O)N1C[C@H](O)C[C@H]1C(=O)N[C@@H](C)c1ccc(C(C)C)cc1)C(C)(C)C [47a, (2S,4R)-1-((S)-2-acetamido-3,3-dimethylbutanoyl)-4-hydroxy-N—((S)-1-(4-isopropylphenyl)ethyl)pyrrolidine-2-carboxamide] | 
6 |  | CCN(CCCCCCCC(=O)N[C@H](C(=O)N1C[C@H](O)C[C@H]1C(=O)N[C@@H](C)c1ccc(-c2scnc2C)cc1)C(C)(C)C)CCOc1ccc(C(=O)c2c(-c3ccc(O)cc3)sc3cc(O)ccc23)cc1 [compound 15, (2S,4R)-1-((S)-2-(8-(Ethyl(2-(4-(6-hydroxy-2-(4-hydroxyphenyl)benzo[b]thiophene-3-carbonyl)phenoxy)ethyl)amino)octanamido)-3,3-dimethylbutanoyl)-4-hydroxy-N—((S)-1-(4-(4-methylthiazol-5-yl)phenyl)ethyl)pyrrolidine-2-carboxamide] | surprisingly effective in inducing ER degradation at concentrations as low as 1 nM
7 |  | CCN(CCCCCC(=O)N[C@H](C(=O)N1C[C@H](O)C[C@H]1C(=O)N[C@@H](C)c1ccc(-c2scnc2C)cc1)C(C)(C)C)CCOc1ccc(C(=O)c2c(-c3ccc(O)cc3)sc3cc(O)ccc23)cc1 [compound 18, (2S,4R)-1-((S)-2-(6-(Ethyl(2-(4-(6-hydroxy-2-(4-hydroxyphenyl)benzo[b]thiophene-3-carbonyl)phenoxy)ethyl)amino)hexanamido)-3,3-dimethylbutanoyl)-4-hydroxy-N—((S)-1-(4-(4-methylthiazol-5-yl)phenyl)ethyl)pyrrolidine-2-carboxamide] | surprisingly effective in inducing ER degradation at concentrations as low as 1 nM
8 |  | CCN(CCCCCCC(=O)N[C@H](C(=O)N1C[C@H](O)C[C@H]1C(=O)N[C@@H](C)c1ccc(-c2scnc2C)cc1)C(C)(C)C)CCOc1ccc(C(=O)c2c(-c3ccc(O)cc3)sc3cc(O)ccc23)cc1 [compound 19, (2S,4R)-1-((S)-2-(7-(Ethyl(2-(4-(6-hydroxy-2-(4-hydroxyphenyl)benzo[b]thiophene-3-carbonyl)phenoxy)ethyl)amino)heptanamido)-3,3-dimethylbutanoyl)-4-hydroxy-N—((S)-1-(4-(4-methylthiazol-5-yl)phenyl)ethyl)pyrrolidine-2-carboxamide] | surprisingly effective in inducing ER degradation at concentrations as low as 1 nM
9 |  | CCN(CCCCCCCCC(=O)N[C@H](C(=O)N1C[C@H](O)C[C@H]1C(=O)N[C@@H](C)c1ccc(-c2scnc2C)cc1)C(C)(C)C)CCOc1ccc(C(=O)c2c(-c3ccc(O)cc3)sc3cc(O)ccc23)cc1 [compound 20, (2S,4R)-1-((S)-2-(9-(Ethyl(2-(4-(6-hydroxy-2-(4-hydroxyphenyl)benzo[b]thiophene-3-carbonyl)phenoxy)ethyl)amino)nonanamido)-3,3-dimethylbutanoyl)-4-hydroxy-N—((S)-1-(4-(4-methylthiazol-5-yl)phenyl)ethyl)pyrrolidine-2-carboxamide] | surprisingly effective in inducing ER degradation at concentrations as low as 1 nM
10 |  | CCN(CCCCCCCCCC(=O)N[C@H](C(=O)N1C[C@H](O)C[C@H]1C(=O)N[C@@H](C)c1ccc(-c2scnc2C)cc1)C(C)(C)C)CCOc1ccc(C(=O)c2c(-c3ccc(O)cc3)sc3cc(O)ccc23)cc1 [compound 21, (2S,4R)-1-((S)-2-(10-(Ethyl(2-(4-(6-hydroxy-2-(4-hydroxyphenyl)benzo[b]thiophene-3-carbonyl)phenoxy)ethyl)amino)decanamido)-3,3-dimethylbutanoyl)-4-hydroxy-N—((S)-1-(4-(4-methylthiazol-5-yl)phenyl)ethyl)pyrrolidine-2-carboxamide] | surprisingly effective in inducing ER degradation at concentrations as low as 1 nM
